Assay results: PubChem BioAssay AID2060494 (Molecular Pharmacology Branch, DTP, NCI, 2025)

Test system: 435261-313-R-J1-PDC complex spheroid viability
Assay: Anticancer human tumor 435261-313-R-J1-PDC patient-derived colon adenocarcinoma cell line growth inhibition [GQUAD]
Settings: for IC50: curve of first compound; for viability, T/C: stronger effect = lower value
Outline: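 Multi-cell-type spheroids of tumor cells with HUVEC and mesenchymal stem cells, treated with drug combinations. Concentrations descend in half-log steps from near clinical Cmax, or from 10 microM where Cmax is unknown; viability read-out.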

[1] = second compound 0.0316 µM, first compound 0.0316 µM
[2] = second compound 0.0316 µM, first compound 0.1 µM
[3] = second compound 0.0316 µM, first compound 0.316 µM
[4] = second compound 0.0316 µM, first compound 1 µM
[5] = second compound 0.0316 µM, first compound 3.16 µM
[6] = second compound 0.0316 µM, first compound 10 µM
[7] = second compound 0.1 µM, first compound 0.0316 µM
[8] = second compound 0.1 µM, first compound 0.1 µM
[9] = second compound 0.1 µM, first compound 0.316 µM
[10] = second compound 0.1 µM, first compound 1 µM
[11] = second compound 0.1 µM, first compound 3.16 µM
[12] = second compound 0.1 µM, first compound 10 µM
[13] = second compound 0.316 µM, first compound 0.0316 µM
[14] = second compound 0.316 µM, first compound 0.1 µM
[15] = second compound 0.316 µM, first compound 0.316 µM
[16] = second compound 0.316 µM, first compound 1 µM
[17] = second compound 0.316 µM, first compound 3.16 µM
[18] = second compound 0.316 µM, first compound 10 µM
[19] = second compound 1 µM, first compound 0.0316 µM
[20] = second compound 1 µM, first compound 0.1 µM
[21] = second compound 1 µM, first compound 0.316 µM
[22] = second compound 1 µM, first compound 1 µM
[23] = second compound 1 µM, first compound 3.16 µM
[24] = second compound 1 µM, first compound 10 µM
[25] = second compound 3.16 µM, first compound 0.0316 µM
[26] = second compound 3.16 µM, first compound 0.1 µM
[27] = second compound 3.16 µM, first compound 0.316 µM
[28] = second compound 3.16 µM, first compound 1 µM
[29] = second compound 3.16 µM, first compound 3.16 µM
[30] = second compound 3.16 µM, first compound 10 µM
[31] = second compound 10 µM, first compound 0.0316 µM
[32] = second compound 10 µM, first compound 0.1 µM
[33] = second compound 10 µM, first compound 0.316 µM
[34] = second compound 10 µM, first compound 1 µM
[35] = second compound 10 µM, first compound 3.16 µM
[36] = second compound 10 µM, first compound 10 µM
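Also: spheroids exposed to the agents for seven days before readout.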
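For viability, T/C in this document: percent of vehicle control viability with DMSO wells as 100%.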

## CC(C)n1c(=O)n(C)c2cnc3cc(F)c(-c4ccc(OCCCN5CCCCC5)nc4)cc3c21 + CN(C)c1ccc(Nc2c3ccc(NC(=O)CCN4CCCC4)cc3nc3cc(NC(=O)CCN4CCCC4)ccc23)cc1
Second compound 0.0316 µM
  IC50: > 10000 nM
Second compound 0.1 µM
  IC50: 7000 nM
Second compound 0.316 µM
  IC50: 6840 nM
Second compound 1 µM
  IC50: 7580 nM
Second compound 3.16 µM
  IC50: 167 nM
Second compound 10 µM
  IC50: 60.4 nM
[1]
  viability, T/C: 127%
[2]
  viability, T/C: 103%
[3]
  viability, T/C: 92.8%
[4]
  viability, T/C: 98.6%
[5]
  viability, T/C: 89.2%
[6]
  viability, T/C: 59.1%
[7]
  viability, T/C: 75.2%
[8]
  viability, T/C: 99.2%
[9]
  viability, T/C: 97.7%
[10]
  viability, T/C: 71.3%
[11]
  viability, T/C: 85%
[12]
  viability, T/C: 34.4%
[13]
  viability, T/C: 88.8%
[14]
  viability, T/C: 128%
[15]
  viability, T/C: 109%
[16]
  viability, T/C: 113%
[17]
  viability, T/C: 73.7%
[18]
  viability, T/C: 38.3%
[19]
  viability, T/C: 93.3%
[20]
  viability, T/C: 89.9%
[21]
  viability, T/C: 63.7%
[22]
  viability, T/C: 63.7%
[23]
  viability, T/C: 70.3%
[24]
  viability, T/C: 40%
[25]
  viability, T/C: 63.7%
[26]
  viability, T/C: 54.4%
[27]
  viability, T/C: 42.5%
[28]
  viability, T/C: 30.2%
[29]
  viability, T/C: 39%
[30]
  viability, T/C: 11.6%
[31]
  viability, T/C: 68.4%
[32]
  viability, T/C: 36.3%
[33]
  viability, T/C: 14.8%
[34]
  viability, T/C: 9.87%
[35]
  viability, T/C: 4.77%
[36]
  viability, T/C: 1.9%

## CC1COCCN1c1cc(-c2ccnn2C)c2ccnc(-c3ccn[nH]3)c2n1 (stereo unspecified) + CN(C)c1ccc(Nc2c3ccc(NC(=O)CCN4CCCC4)cc3nc3cc(NC(=O)CCN4CCCC4)ccc23)cc1
Second compound 0.0316 µM
  IC50: 804 nM
Second compound 0.1 µM
  IC50: 500 nM
Second compound 0.316 µM
  IC50: 725 nM
Second compound 1 µM
  IC50: 1030 nM
Second compound 3.16 µM
  IC50: 145 nM
Second compound 10 µM
  IC50: < 31.6 nM
[1]
  viability, T/C: 87%
[2]
  viability, T/C: 76%
[3]
  viability, T/C: 76.2%
[4]
  viability, T/C: 43.6%
[5]
  viability, T/C: 28.8%
[6]
  viability, T/C: 25.2%
[7]
  viability, T/C: 88.4%
[8]
  viability, T/C: 85.9%
[9]
  viability, T/C: 55.9%
[10]
  viability, T/C: 38.5%
[11]
  viability, T/C: 38.8%
[12]
  viability, T/C: 23.1%
[13]
  viability, T/C: 71.8%
[14]
  viability, T/C: 80.7%
[15]
  viability, T/C: 60.4%
[16]
  viability, T/C: 44.5%
[17]
  viability, T/C: 32.8%
[18]
  viability, T/C: 22.9%
[19]
  viability, T/C: 64.6%
[20]
  viability, T/C: 69.5%
[21]
  viability, T/C: 61.8%
[22]
  viability, T/C: 48.2%
[23]
  viability, T/C: 35%
[24]
  viability, T/C: 17.2%
[25]
  viability, T/C: 89%
[26]
  viability, T/C: 48.3%
[27]
  viability, T/C: 41.5%
[28]
  viability, T/C: 24.5%
[29]
  viability, T/C: 16.4%
[30]
  viability, T/C: 4.38%
[31]
  viability, T/C: 27.1%
[32]
  viability, T/C: 22.1%
[33]
  viability, T/C: 21.6%
[34]
  viability, T/C: 14.1%
[35]
  viability, T/C: 6.17%
[36]
  viability, T/C: 1.51%

## CC1COCCN1c1cc(C2(O)CC3CCC(C2)O3)c2cnn(-c3ccn[nH]3)c2n1 (stereo unspecified) + CN(C)c1ccc(Nc2c3ccc(NC(=O)CCN4CCCC4)cc3nc3cc(NC(=O)CCN4CCCC4)ccc23)cc1
Second compound 0.0316 µM
  IC50: 193 nM
Second compound 0.1 µM
  IC50: 316 nM
Second compound 0.316 µM
  IC50: 225 nM
Second compound 1 µM
  IC50: 257 nM
Second compound 3.16 µM
  IC50: < 31.6 nM
Second compound 10 µM
  IC50: < 31.6 nM
[1]
  viability, T/C: 63%
[2]
  viability, T/C: 58.1%
[3]
  viability, T/C: 45.1%
[4]
  viability, T/C: 27.4%
[5]
  viability, T/C: 23.2%
[6]
  viability, T/C: 12%
[7]
  viability, T/C: 71.3%
[8]
  viability, T/C: 82.8%
[9]
  viability, T/C: 47.3%
[10]
  viability, T/C: 26.8%
[11]
  viability, T/C: 21.1%
[12]
  viability, T/C: 10.8%
[13]
  viability, T/C: 75.1%
[14]
  viability, T/C: 61.7%
[15]
  viability, T/C: 45.7%
[16]
  viability, T/C: 28.9%
[17]
  viability, T/C: 25%
[18]
  viability, T/C: 11.6%
[19]
  viability, T/C: 82.7%
[20]
  viability, T/C: 64.5%
[21]
  viability, T/C: 48%
[22]
  viability, T/C: 28.3%
[23]
  viability, T/C: 21.1%
[24]
  viability, T/C: 7.4%
[25]
  viability, T/C: 48.6%
[26]
  viability, T/C: 44.3%
[27]
  viability, T/C: 31.9%
[28]
  viability, T/C: 13.3%
[29]
  viability, T/C: 9.48%
[30]
  viability, T/C: 3.11%
[31]
  viability, T/C: 26.9%
[32]
  viability, T/C: 18.5%
[33]
  viability, T/C: 17%
[34]
  viability, T/C: 7.23%
[35]
  viability, T/C: 3.13%
[36]
  viability, T/C: 1.2%
